Source: patent US20240150363A1, “COELENTERAZINE ANALOGUES” (Promega Corporation, priority 2022, published 2024)

Experiments:
[1] = Stability of formulated Compound 6 (P-407 cake) in reconstitution buffers, LC-MS; assay type: physicochemical
Method: Experiments were conducted during development of embodiments herein to evaluate the stability of Compound 6 in various reconstitution buffer formulation. Briefly, 12 mg of Poloxamer 407 (P-407) was melted at 70˜75° C., and 4.2 μmol of Compound 6 was dissolved in 1 mL EtOH, followed by transferring the resulting solution to the melted P-407. The resulting mixture was rotated at 65˜75° C. to afford a homogeneous solution. The resulting solution was concentrated in vacuo and resuspended in 6 ml MQ water. 1 mL aliquots of the resuspended Compound 6 was then distributed into sample vials, frozen, and lyophilized to afford a formulated cake. Sample formulated cakes were then reconstituted in DPBS, HEPES, or Tris (pH 6.5, 7.5, or 8.0) buffers. Stability and purity were determined by LC-MS.

[2] = Systematic stability study of formulated Compound 6 reconstitution in buffers, LC-MS; assay type: physicochemical
Method: In addition to the stability experiments in Example 3, an additional systematic, controlled, and comprehensive stability study was conducted to evaluate the stability of formulated Compound 6 in various buffer formulation. Briefly, 4.2 μmol of Compound 6 was reconstituted in 1 mL of each buffer at the concentration and pH outlined in Table 1. Concentration and purity were determined by LC-MS. Briefly, 1 μL of sample was injected into an Eclipse RRHD C8 (50×2; 1 mm; 1.8 micron; λ=254 nm) with an aqueous mobile phase of 0.1% TFA in Nanopure water and an organic mobile phase of acetonitrile.

[3] = system: chimera (HT178-cpNLuc-179); experiment: Total bioluminescence of purified chimera with substrate; assay type: biochemical; details: purified chimera 6 nM, substrate 20 μM, 1 min; compared to Furimazine and FluoroFurimazine
Method: (§1) Experiments were conducted during development of embodiments herein to evaluate the influence of Furimazine analogs on the intensity of bioluminescence produced by either purified NLuc-HaloTag fusion or purified chimera (i.e., HT178-cpNLuc-179, generated by insertion of cpNLuc into HaloTag). Briefly, purified NLuc-HaloTag fusion or chimera was diluted in TBS+0.1% BSA to a final concentration of 6 nM, treated with substrate at a final concentration of 20 μM, and incubated for 1 min before measurements of total bioluminescence on a GloMax® Discover plate reader (Promega; n=3) or measurements of bioluminescence intensity across 400-600 nm on an Infinite M1000 plate reader (Tecan; n=1).

NLuc-HaloTag fusion [4] = target: T1, NLuc-HaloTag fusion (Oplophorus gracilirostris, UniProt Q9GV45, A31E/A60N/A81I/F95D/I117V/K70R/L54V/L99Q/M102K/N193R/P142E/Q151K/Q38R/Q45L/V71I/Y165I); experiment: Total bioluminescence of purified NLuc-HaloTag fusion with substrate; assay type: biochemical; details: purified NLuc-HaloTag fusion 6 nM, substrate 20 μM, 1 min; compared to Furimazine and FluoroFurimazine
T1 construct: HaloTag (fusion partner)
T1 sequence (Q9GV45 other isoform, or with tags, fused parts or gaps with the stated changes): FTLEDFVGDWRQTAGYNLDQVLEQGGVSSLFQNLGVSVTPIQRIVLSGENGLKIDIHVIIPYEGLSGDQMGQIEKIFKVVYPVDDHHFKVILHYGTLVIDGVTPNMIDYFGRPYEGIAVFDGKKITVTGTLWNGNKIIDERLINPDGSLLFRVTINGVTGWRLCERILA
Method: as §1

NLuc-HaloTag fusion [5] = target: T1, NLuc-HaloTag fusion; experiment: Bioluminescence of HeLa cells transiently expressing NLuc-HaloTag fusion; assay type: cell-based; details: substrate 10 μM, 1 min, compared to Furimazine and FluoroFurimazine
Method: (§2) Additional experiments were conducted during development of embodiments herein to evaluate the influence of Furimazine analogs on the intensity of bioluminescence produced by transiently expressed NLuc-HaloTag fusion or chimera (i.e., HT178-cpNLuc-179, generated by insertion of cpNLuc into HaloTag). Briefly, HeLa cells diluted to 2.2×10^5 cells/mL in OptiMEM+2% serum were transfected with DNA encoding either NLuc-HaloTag fusion or chimera, plated in 96-well at 90 μL/well, and incubated overnight at 37° C.+5% CO2. Next day, cells were treated with substrate at a final concentration of 10 μM and incubated for 1 min before measurements of total bioluminescence on a GloMax® Discover plate reader (Promega; n=3) or measurements of bioluminescence intensity across 400-600 nm on an Infinite M1000 plate reader (Tecan; n=1).

[6] = system: chimera (HT178-cpNLuc-179); experiment: Bioluminescence of HeLa cells transiently expressing chimera; assay type: cell-based; details: substrate 10 μM, 1 min, compared to Furimazine and FluoroFurimazine
Method: as §2

[7] = reconstituted using glycerol (2%)

## O=c1c(Cc2ccco2)nc2c(Cc3ccccc3F)[nH]c(-c3cccc(F)c3F)cn1-2 [Compound 6, 6-(2,3-difluorophenyl)-8-(2-fluorobenzyl)-2-(furan-2-ylmethyl)imidazo[1,2-a]pyrazin-3(7H)-one]
[1]; reconstituted in DPBS
  stability and purity: lowest stability and purity
[1]; reconstituted in HEPES
  purity after 3 h: about 50%
  stability: improved stability compared to DPBS
[1]; reconstituted in Tris buffer
  purity after 3 h: ~90%
  stability: highest stability
[2]; in Tris (pH=8) buffer
  preservation based on purity and concentration data: well-preserved
[2]; in saline
  preservation based on purity and concentration data: well-preserved
[2]; in water
  preservation based on purity and concentration data: well-preserved
[2]; reconstituted using DPBS (pH 7.0)
  precipitation / solubility: visible precipitation
[2]; reconstituted using Tris (pH=6.5)
  precipitation / solubility: visible precipitation
[2]; reconstituted using Tris (pH=8)
  purity over a 6-hour period: greater than 90%
[2]; reconstituted using acetate (sodium acetate pH 5.2)
  purity over a 6-hour period: greater than 90%
[2]; reconstituted using bicarbonate (pH 9.5)
  precipitation / solubility: visible precipitation
[2]; reconstituted using citrate (pH 6.0)
  purity over a 6-hour period: greater than 90%
[2]; [7]
  precipitation / solubility: visible precipitation
  purity over a 6-hour period: greater than 90%
[2]; reconstituted using saline (0.9%)
  purity over a 6-hour period: greater than 90%
[2]; reconstituted using water
  purity over a 6-hour period: greater than 90%

## Cc1ccc(Cc2nc3c(Cc4ccccc4F)[nH]c(-c4cccc(F)c4F)cn-3c2=O)o1 [Compound 10, 6-(2,3-difluorophenyl)-8-(2-fluorobenzyl)-2-((5-methylfuran-2-yl)methyl)imidazo[1,2-a]pyrazin-3(7H)-one]
[3]
  bioluminescence signal as a substrate: significantly brighter signal
NLuc-HaloTag fusion [4]
  bioluminescence signal as a substrate: significantly brighter signal
NLuc-HaloTag fusion [5]
  bioluminescence signal as a substrate: significantly brighter signal
[6]
  bioluminescence signal as a substrate: significantly brighter signal
